This is an account of results in publication PMC11219860, “A chemogenetic approach for dopamine imaging with tunable sensitivity” (Nature Communications, 2024).

For one test, the system named is NAc DRD1-MSNs. The experiment in a line: Footshock-induced NAc DRD1-MSN activity (jGCaMP8m photometry). As to conditions: DETQ 10 mg/kg; SCH-23390 0.1 mg/kg i.p.
Test [1] concerns dLight1.3b-expressing HEK293T sniffer cells on primary DArgic neurons. The experiment in a line: DA release imaging from cultured DArgic neurons with dLight1.3b sniffer cells. The class given is cell-based, mouse. As to conditions: DETQ 200 nM added to 4-AP perfusion. The protocol: Primary DA (DA) neurons were grown on a layer of cortical astrocytes. The astrocytes were first prepared from P0-P2 C57BL6 mice, grown in T75 flask and then seeded on collagen/poly-L-lysine coated 15 mm glass coverslips at a concentration of 100,000 cells/ml. The cells were allowed to grow until close to confluence before the seeding of neurons. Primary DArgic neurons were prepared and cultured from P0-P2 mouse pups using a previously described protocol. Briefly, the ventral midbrain of P0-P2 pups was dissected from DAT^IREScre x Ai9 mice in which DA neurons expressed the red fluorescent protein tdTomato. These were produced by crossing DAT^IREScre mice (catalog #006660, Jackson Labs[31]) to Ai9/tdTomato mice (catalog #007905, Jackson Labs[32]). Both of these lines were on a C57BL/6 J background. Midbrain cells were seeded at a concentration of 240,000 cells/ml on top of the astrocyte monolayer and allowed to grow for 10 days (10 DIV). Two days before imaging, expression of dLight1.3b was induced in stable HEK cells with doxycycline. One day prior to imaging, HEK cells were lifted using trypsin, and 150,000 HEK cells were seeded on top of 10 DIV-cultured neurons in doxycycline-supplemented neuronal medium. Imaging was performed on a confocal microscope (Nikon A1 HD25) using a 40X dry objective and a 488 nm laser to excite dLight1.3b and a 546 nm laser to activate tdTomato and identify DA neurons. On the day of imaging, physiological saline containing drugs at the specified concentration ([…], Sigma; SCH23390, Sigma; DETQ, Enamine) were applied on the culture using a computer-controlled perfusion system (Automate system). A field containing one or more DA neurons was selected based on the tdTomato signal. […]
Event detection was performed using a thresholding algorithm adapted from[80]. In brief, the recorded field of view was divided into square ROIs of 55 um x 55 um size. […] A rolling standard deviation was calculated with the same window size. Events were defined as timepoints at which the fluorescence intensity reading exceeds the averaged intensity by 5 standard deviations.

The test system of a further test is DRD1-MSNs. Briefly: Whole-cell electrophysiology of DRD1-MSNs in dorsal striatum brain slices. Type of test: cell-based, mouse. How it is done: For experiments involving SKF38393 application, to identify DRD1 receptor (DRD1)-positive neurons in the dorsal striatum, DRD1:cre mice injected with AAV5-hSyn-dlox-ChrimsonR-tdTomato were used. 3–4 weeks after viral injection, mice were anesthetized with 5% isoflurane and euthanized by decapitation. […] Slices were kept at 34 °C for 10–20 minutes and then at room temperature until recordings. In the recording chamber, slices were superfused with ACSF at 30–32 °C. Patch pipettes (3–7 MΩ) were pulled from borosilicate glass pipettes (GC150T-10, Harvard Apparatus). The internal solution contained (in mM): potassium gluconate 130, MgCl2 4, MgATP 3.4, Na3GTP 0.1, creatine phosphate 10, HEPES 5, and EGTA 1.1. The membrane potential was measured using EPC 10 USB Patch Clamp Amplifiers (HEKA). The access resistance was monitored by a hyperpolarizing step of −10 mV. The identification of DRD1-positive neurons was performed by the presence of red fluorescence protein and photo-evoked current or potential (@2 Hz, 10 ms duration, 2 pulses or 500 ms continuous pulse. light source: Colibri 7, Zeiss; 630 nm wavelength, 1 mW). To assess the excitability of neurons, positive currents were injected (0–500 pA) and the number of action potentials was counted at each current step. To measure input resistance, negative currents were injected (−200 to 0 pA, every 50 pA, 500 ms), as previously described. The resting membrane potential was measured at 0 pA current input.
Action potentials were evoked by current injection (50–500 pA, 500 ms) in current-clamped neurons. Neurons were recorded from in the presence of picrotoxin (100 µM), CGP55485 (0.3 µM), DNQX (10 µM), and MK801 (10 µM) to block GABAA, GABAB, AMPA and NMDA receptors, respectively. DA (10 µM) was applied to brain slices in the presence of cocaine (5 µM) to prevent reuptake.

The next test concerns 5-HT2B. Details: method as in Svensson et al., 2017; Hao et al., 2019. As to conditions: 10 uM of DETQ; ref Svensson et al., 2017; Hao et al., 2019; cited from earlier work.

Procedure for NAc DRD1-MSNs: Cue-reward paradigm (NAc recordings) was carried out in an operant chamber within a sound-attenuating box with low red light illumination (30 Lux). […] During the next session mice were trained to initiate reward delivery via licking. […] During expert sessions CS-US pairings were repeated 20 times per session ( ~ 30 min for each session). Mice underwent a total of 12 sessions for cue-reward learning. 10 minutes before each session drugs were injected i.p. […] The rewards were delivered from 10 to 40 min post vehicle or DETQ injection. Chambers and lick ports were sanitized with ethanol between mice. For all sessions, lick data and photometry recordings were simultaneously obtained; licking behaviour was detected by a capacity-based sensor. Latency to reward-anticipatory licking was calculated as the time between the CS and lick onset. The lick proportion was calculated as the percent time mice spent licking during CS presentation divided by the percent time mice spent licking during the rest of the session (without CS). […] Fiber photometry recordings were analyzed using custom-written Matlab scripts. […] Change in fluorescence, ΔF/F0 (%), was defined as (F-F0)/F0 x 100, where F represents the fluorescent signal (465-nm) at each time point. F0 was calculated by applying a least-squares linear fit (polyfit) to the 405-nm signal to align with the 465-nm signal. […]

Take `C[C@H]1c2cccc(C(C)(C)O)c2C[C@H](CO)N1C(=O)Cc1c(Cl)cccc1Cl` [DETQ, 2-(2,6-dichlorophenyl)-1-((1S,3R)-3-(hydroxymethyl)-5-(2-hydroxypropan-2-yl)-1-methyl-3,4-dihydroisoquinolin-2(1H)-yl)ethan-1-one]: the “footshock-induced activity in NAc DRD1-MSNs” value with NAc DRD1-MSNs is “remained unaffected”. In addition, in test [1], the “number of detected phasic DA release events” value is “increased” and the “sensor baseline signal (tonic DA)” value is “long-lasting increase”. Also, the “number of action potentials: DA with versus without DETQ” value in the test with DRD1-MSNs (DA 10 µM, DETQ 200 nM) was “no significant difference”. The “resting membrane potential or excitability of DRD1-MSNs” value in the test with DRD1-MSNs (DETQ 200 nM superfusion) is “No noticeable changes”. Further, the “inhibition of ligand binding” value with 5-HT2B was 48%.
